Measured values: US7893252B2, “Selectively depolymerized galactomannan polysaccharide” (priority 2003, dated 2011)
“Also recorded” adds a separate entry of the source.

What was measured:
[1] = test system: COLO 205 human colon tumor xenografts; assay: Efficacy and compatibility with leucovorin in COLO 205 human colon tumor xenografts, q4d×4 (Example 4)
Experimental: The principal differences with the study described in Example 3 were that (a) the galactomannan was from another source, of a different size (molecular weight) and with a different Man/Gal ratio, (b) there were four consecutive injections, not three, (c) there were four doses of the galactomannan tested, not one, (d) 5-FU was administered (i.v.) in 48 mg/kg/dose, not 75 mg/kg/dose, as in the first study, and (e) galactomannan (i.v. injection) was compared with leucovorin (oral gavage, administered two hours after 5-FU) in terms of efficacy and toxicity. […] 5-FU alone was administered i.v. on the same q4d×4 treatment schedule at dosages of 48 mg/kg/dose. 5-FU was formulated in saline fresh on each day of treatment at a concentration of 4.8 mg/mL, at pH 9.2. […] Leucovorin powder (clinical formulation, Leucovorin calcium for injection) was reconstituted with water for injection to yield a concentration of 10 mg/mL. On each day of treatment the stock solution was diluted with water for injection to yield a concentration of 2.5 mg/mL.
Two more combination-treatment groups were also included in the study. One group of mice was treated with 5-FU (48 mg/kg/dose, i.v., q4d×4), followed by oral gavage (p.o.) with leucovorin, administered two hours after 5-FU at a dosage of 25 mg/kg/dose. Another two groups of mice were treated with 5-FU in a combination with the galactomannan (48 mg/kg/dose and 120 mg/kg/dose, respectively, i.v., q4d×4), followed by p.o. leucovorin treatment, administered at a dosage of 25 mg/kg/dose two hours after 5-FU plus the galactomannan.
There were a total of nine groups of 10 animals each, s.c.-implanted with COLO 205 human colon tumor xenografts.

[2] = test system: mice; assay: Acute toxicology, single IV dose in mice; format: in vivo; conditions: single IV dose; galactomannan (336 mg/m2), 112 mg/kg (336 mg/m2); combination 417/222 mg/kg (1251/666 mg/m2); n=5/group
Experimental: Acute toxicology studies of the galactomannan of the present invention were performed in mice, rats and dogs and subchronic toxicology studies were performed in rats and dogs. The following is a summary of the findings of these studies: […]

[3] = test system: dogs; assay: Acute toxicology, single IV injection in dogs; format: in vivo; conditions: 5-FU 28.5 mg/kg, galactomannan 15 mg/kg, combination 28.5/15 mg/kg
Experimental: Acute toxicology studies of the galactomannan of the present invention were performed in mice, rats and dogs and subchronic toxicology studies were performed in rats and dogs. The following is a summary of the findings of these studies:
The surviving dogs remained clinically normal and had no treatment-related changes in body weight, feed consumption, ECG tracings, clinical pathology or gross tissue changes during the 21-day study period.

[4] = test system: rats; assay: Repeat dose I.V. rat study with GMP grade galactomannan (Example 8); format: in vivo
Experimental: Studies with repeat dose I.V. in rats with up to 52-day recovery period was performed using filtered GMP grade galactomannan material containing 48 or 96 mg/kg (288 or 576 mg/m2). Five animals of each sex were sacrificed at days 5, 28 and 56.
The galactomannan of the invention has minimal histological effects with only 1/30 rats injected with 48 mg/kg dose of the GMP galactomannan clinical solution having granulomatous inflammation. […] It was concluded that galactomannan clinical solutions, up to a dose of 15 mg/kg (555 mg/m2; 9 mg/mL), is safe for human use and poses no undue risk to health.

[5] = test system: Salmonella typhimurium strains TA97a, TA98, TA100, TA1535 and Escherichia coli strain WP2 uvrA (pKM101); assay: Ames bacterial reverse mutation assays; format: cell-based; conditions: in the presence and absence of an exogenous metabolic activation system
Experimental: Mutagenicity studies were conducted and included two Ames bacterial reverse mutation assays in which the galactomannan of the invention was evaluated by itself in the first study and combined with 5-FU in the second study. The test articles in both studies were evaluated in bacterial assays using Salmonella typhimurium strains TA97a, TA98, TA100, TA1535 and Escherichia coli strain WP2 uvrA (pKM101), both in the presence and absence of an exogenous metabolic activation system.

[6] = i.v. q4d×4, 5-FU 48 mg/kg/dose, GM 120 mg/kg/dose

## (((1,4)-linked β-D-mannopyranose)17-((1,6)-linked-β-D-galactopyranose)10)12) [GM]
[1]; GM 120 mg/kg/dose alone, q4d×4
  tumor growth delay / tumor regression after 13 days: did not delay growth; also recorded: No tumor regression
[1]; [6]
  median to quadrupling of tumor volume: 6.9 days
  median tumor volume after 13 days: 1152 mm3
[2]
  clinical signs of toxicity, death or decreased weight gain: no clinical signs of toxicity, death or decreased weight gain
[3]
  death: 0/2
[4]; 48 mg/kg dose of GMP galactomannan clinical solution
  rats having granulomatous inflammation: 1/30
[4]; 96 mg/kg dose of GMP galactomannan clinical solution
  rats having granulomatous inflammation: None of the 30
[5]; listed as galactomannan
  mutagenic activity: not mutagenic
[5]; listed as galactomannan of the invention
  mutagenic activity: No evidence of mutagenic activity
